Assay results taken from PubChem BioAssay AID2060618 (Molecular Pharmacology Branch, DTP, NCI, 2025).

Test system: 454973-116-R2-J3-PDC spheroids, percent test/control viability
Experiment: Anticancer human tumor 454973-116-R2-J3-PDC patient-derived pancreatic carcinoma cell line growth inhibition [CLK]
Settings: spheroids with HUVEC and MSC; for IC50: curve of first compound; for viability, T/C: stronger effect = lower value
How it was run: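 Multi-cell-type spheroids combined patient-derived tumor cells with HUVEC endothelial cells and human mesenchymal stem cells. Paired agents were dosed in half-log steps down from about clinical Cmax, or from 10 microM where Cmax was unknown.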

[1] = second compound 0.0316 µM, first compound 0.0316 µM
[2] = second compound 0.0316 µM, first compound 0.1 µM
[3] = second compound 0.0316 µM, first compound 0.316 µM
[4] = second compound 0.0316 µM, first compound 1 µM
[5] = second compound 0.1 µM, first compound 0.0316 µM
[6] = second compound 0.1 µM, first compound 0.1 µM
[7] = second compound 0.1 µM, first compound 0.316 µM
[8] = second compound 0.1 µM, first compound 1 µM
[9] = second compound 0.316 µM, first compound 0.0316 µM
[10] = second compound 0.316 µM, first compound 0.1 µM
[11] = second compound 0.316 µM, first compound 0.316 µM
[12] = second compound 0.316 µM, first compound 1 µM
[13] = second compound 1 µM, first compound 0.0316 µM
[14] = second compound 1 µM, first compound 0.1 µM
[15] = second compound 1 µM, first compound 0.316 µM
[16] = second compound 1 µM, first compound 1 µM
[17] = second compound 3.16 µM, first compound 0.0316 µM
[18] = second compound 3.16 µM, first compound 0.1 µM
[19] = second compound 3.16 µM, first compound 0.316 µM
[20] = second compound 3.16 µM, first compound 1 µM
[21] = second compound 10 µM, first compound 0.0316 µM
[22] = second compound 10 µM, first compound 0.1 µM
[23] = second compound 10 µM, first compound 0.316 µM
[24] = second compound 10 µM, first compound 1 µM
[25] = second compound 0.0316 µM, first compound 3.16 µM
[26] = second compound 0.0316 µM, first compound 10 µM
[27] = second compound 0.1 µM, first compound 3.16 µM
[28] = second compound 0.1 µM, first compound 10 µM
[29] = second compound 0.316 µM, first compound 3.16 µM
[30] = second compound 0.316 µM, first compound 10 µM
[31] = second compound 1 µM, first compound 3.16 µM
[32] = second compound 1 µM, first compound 10 µM
[33] = second compound 3.16 µM, first compound 3.16 µM
[34] = second compound 3.16 µM, first compound 10 µM
[35] = second compound 10 µM, first compound 3.16 µM
[36] = second compound 10 µM, first compound 10 µM
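Also: spheroids exposed to compounds for 7 days before readout.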

CCc1c2c(nc3ccc(O)cc13)-c1cc3c(c(=O)n1C2)COC(=O)[C@]3(O)CC + CNC(=O)c1ccc(Nc2nc(OC3CCCC3)c3c(-c4ccc5nc(C)oc5c4)c[nH]c3n2)c(OC)c1
IC50 (second compound 0.0316 µM): < 3.16 nM
IC50 (second compound 0.1 µM): < 3.16 nM
IC50 (second compound 0.316 µM): < 3.16 nM
IC50 (second compound 1 µM): < 3.16 nM
IC50 (second compound 3.16 µM): < 3.16 nM
IC50 (second compound 10 µM): < 3.16 nM
viability, T/C (second compound 0.0316 µM, first compound 0.00316 µM): 27.4%
viability, T/C (second compound 0.0316 µM, first compound 0.01 µM): 16.7%
viability, T/C [1]: 12.8%
viability, T/C [2]: 5.45%
viability, T/C [3]: 4.91%
viability, T/C [4]: 1.19%
viability, T/C (second compound 0.1 µM, first compound 0.00316 µM): 21.7%
viability, T/C (second compound 0.1 µM, first compound 0.01 µM): 18.1%
viability, T/C [5]: 13.6%
viability, T/C [6]: 9.68%
viability, T/C [7]: 3.81%
viability, T/C [8]: 1.47%
viability, T/C (second compound 0.316 µM, first compound 0.00316 µM): 20.4%
viability, T/C (second compound 0.316 µM, first compound 0.01 µM): 17.1%
viability, T/C [9]: 10.5%
viability, T/C [10]: 6.75%
viability, T/C [11]: 2.62%
viability, T/C [12]: 1.9%
viability, T/C (second compound 1 µM, first compound 0.00316 µM): 24%
viability, T/C (second compound 1 µM, first compound 0.01 µM): 17.2%
viability, T/C [13]: 6.96%
viability, T/C [14]: 2.96%
viability, T/C [15]: 2.33%
viability, T/C [16]: 1.14%
viability, T/C (second compound 3.16 µM, first compound 0.00316 µM): 24.5%
viability, T/C (second compound 3.16 µM, first compound 0.01 µM): 16.7%
viability, T/C [17]: 7.28%
viability, T/C [18]: 4.75%
viability, T/C [19]: 2.45%
viability, T/C [20]: 0.84%
viability, T/C (second compound 10 µM, first compound 0.00316 µM): 22.6%
viability, T/C (second compound 10 µM, first compound 0.01 µM): 15.3%
viability, T/C [21]: 4.85%
viability, T/C [22]: 5.04%
viability, T/C [23]: 3.11%
viability, T/C [24]: 0.6%

Nc1ccn(C2OC(CO)C(O)C2(F)F)c(=O)n1 (stereo unspecified) + CNC(=O)c1ccc(Nc2nc(OC3CCCC3)c3c(-c4ccc5nc(C)oc5c4)c[nH]c3n2)c(OC)c1
IC50 (second compound 0.0316 µM): < 31.6 nM
IC50 (second compound 0.1 µM): < 31.6 nM
IC50 (second compound 0.316 µM): < 31.6 nM
IC50 (second compound 1 µM): < 31.6 nM
IC50 (second compound 3.16 µM): < 31.6 nM
IC50 (second compound 10 µM): < 31.6 nM
viability, T/C [1]: 10.8%
viability, T/C [2]: 9.2%
viability, T/C [3]: 11.1%
viability, T/C [4]: 7.75%
viability, T/C [25]: 7.61%
viability, T/C [26]: 8.18%
viability, T/C [5]: 9.97%
viability, T/C [6]: 8.66%
viability, T/C [7]: 10.6%
viability, T/C [8]: 9.85%
viability, T/C [27]: 11.6%
viability, T/C [28]: 10.8%
viability, T/C [9]: 11.5%
viability, T/C [10]: 10.7%
viability, T/C [11]: 11.8%
viability, T/C [12]: 10.4%
viability, T/C [29]: 10.3%
viability, T/C [30]: 8.88%
viability, T/C [13]: 11.7%
viability, T/C [14]: 6.57%
viability, T/C [15]: 7.9%
viability, T/C [16]: 9.2%
viability, T/C [31]: 7.06%
viability, T/C [32]: 8.15%
viability, T/C [17]: 11.8%
viability, T/C [18]: 6.57%
viability, T/C [19]: 7.14%
viability, T/C [20]: 9.4%
viability, T/C [33]: 7.28%
viability, T/C [34]: 7.11%
viability, T/C [21]: 13%
viability, T/C [22]: 8.08%
viability, T/C [23]: 4.66%
viability, T/C [24]: 6.23%
viability, T/C [35]: 9.5%
viability, T/C [36]: 8.08%

O=c1[nH]cc(F)c(=O)[nH]1 + CNC(=O)c1ccc(Nc2nc(OC3CCCC3)c3c(-c4ccc5nc(C)oc5c4)c[nH]c3n2)c(OC)c1
IC50 (second compound 0.0316 µM): 1650 nM
IC50 (second compound 0.1 µM): 2020 nM
IC50 (second compound 0.316 µM): 41.2 nM
IC50 (second compound 1 µM): < 31.6 nM
IC50 (second compound 3.16 µM): < 31.6 nM
IC50 (second compound 10 µM): < 31.6 nM
viability, T/C [1]: 94.7%
viability, T/C [2]: 107%
viability, T/C [3]: 88.5%
viability, T/C [4]: 61.7%
viability, T/C [25]: 32.6%
viability, T/C [26]: 38.4%
viability, T/C [5]: 100%
viability, T/C [6]: 113%
viability, T/C [7]: 106%
viability, T/C [8]: 75.8%
viability, T/C [27]: 33.6%
viability, T/C [28]: 32.1%
viability, T/C [9]: 49.4%
viability, T/C [10]: 49.3%
viability, T/C [11]: 42.5%
viability, T/C [12]: 37.5%
viability, T/C [29]: 28.4%
viability, T/C [30]: 25.3%
viability, T/C [13]: 32.9%
viability, T/C [14]: 28.1%
viability, T/C [15]: 21.6%
viability, T/C [16]: 20.6%
viability, T/C [31]: 16.2%
viability, T/C [32]: 19.6%
viability, T/C [17]: 29.8%
viability, T/C [18]: 33%
viability, T/C [19]: 24.5%
viability, T/C [20]: 19.1%
viability, T/C [33]: 16.4%
viability, T/C [34]: 18.9%
viability, T/C [21]: 25.1%
viability, T/C [22]: 25.3%
viability, T/C [23]: 19.7%
viability, T/C [24]: 19.3%
viability, T/C [35]: 17.2%
viability, T/C [36]: 14.2%
